Results: PubChem BioAssay AID1224891

Target: Tyrosine-protein kinase JAK3 (Homo sapiens) (UniProt P52333)
Experiment: JAK3 kinase inhibitors, dose response, biochemical, purified enzyme (AID 1224891)
Conditions: recombinant JAK3 kinase domain, 32P-ATP radiometric

Chain of Tyrosine-protein kinase JAK3 (Homo sapiens) (P52333 whole entry, looked up): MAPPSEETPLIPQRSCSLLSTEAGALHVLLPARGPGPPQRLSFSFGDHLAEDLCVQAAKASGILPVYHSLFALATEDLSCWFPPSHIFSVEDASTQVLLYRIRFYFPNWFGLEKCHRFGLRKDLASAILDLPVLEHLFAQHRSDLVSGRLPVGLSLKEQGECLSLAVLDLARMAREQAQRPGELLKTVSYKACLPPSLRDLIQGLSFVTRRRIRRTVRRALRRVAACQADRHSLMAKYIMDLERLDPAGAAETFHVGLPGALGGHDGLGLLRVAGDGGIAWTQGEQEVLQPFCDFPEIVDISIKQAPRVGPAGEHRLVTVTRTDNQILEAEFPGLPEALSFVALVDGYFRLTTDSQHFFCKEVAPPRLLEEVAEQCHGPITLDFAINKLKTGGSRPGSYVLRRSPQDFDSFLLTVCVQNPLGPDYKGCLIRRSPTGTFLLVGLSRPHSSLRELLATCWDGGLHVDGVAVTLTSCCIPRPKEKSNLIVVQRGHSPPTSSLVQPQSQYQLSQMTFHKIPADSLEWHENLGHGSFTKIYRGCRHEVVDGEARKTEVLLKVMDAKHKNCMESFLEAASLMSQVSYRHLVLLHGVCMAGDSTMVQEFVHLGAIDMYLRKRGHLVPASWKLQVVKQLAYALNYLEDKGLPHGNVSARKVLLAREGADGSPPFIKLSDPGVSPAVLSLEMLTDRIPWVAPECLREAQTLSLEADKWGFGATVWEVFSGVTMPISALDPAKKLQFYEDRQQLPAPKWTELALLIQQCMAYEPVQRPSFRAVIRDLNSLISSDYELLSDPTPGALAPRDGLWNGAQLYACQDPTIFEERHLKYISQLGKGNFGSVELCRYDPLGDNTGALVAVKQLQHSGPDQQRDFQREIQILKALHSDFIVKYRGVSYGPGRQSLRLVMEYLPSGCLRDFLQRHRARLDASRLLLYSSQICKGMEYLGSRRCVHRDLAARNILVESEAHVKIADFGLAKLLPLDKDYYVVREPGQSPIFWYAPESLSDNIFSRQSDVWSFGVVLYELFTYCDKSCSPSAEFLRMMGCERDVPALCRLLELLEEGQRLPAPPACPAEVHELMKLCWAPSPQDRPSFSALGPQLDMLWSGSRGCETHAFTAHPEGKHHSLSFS

IC50: 1920 nM
SMILES: CCOC(=O)c1c[nH]c2ncnc(-c3cc(NC(=O)CC)ccc3F)c12
